Source: patent publication US20110091570A1, “Compositions and Devices for Antisepsis and Anticoagulation” (priority 2008, published 2011)
“And” between values parts separate entries of the source, which are not always exact repeats. Equal entries are not always repeated.

Columns and labels:
Staphylococcus aureus = conditions: local administration, mouse model [Ref 21]; cited from earlier work
D-Dimer = D-Dimer in citrate blood; assay type: biochemical, human; conditions: Example 7; for D-Dimer: individual subjects 1-11; for D-Dimer, mean value: mean of 11 subjects
Experimental: (§1) Whole blood was taken from 11 volunteers and enriched with trisodium citrate (0.3 mL of a 0.106 molar solution per 3 mL whole blood) (S-Monovette®, Sarstedt, Nümbrecht, Germany). Commercial coagulation tests (as described in Example 6) were performed with the following samples: […]

[1] = system: Candida albicans, CBS 5982; assay: Fungicidal activity of NCT without and with heparin (CFU counts); assay type: cell-based; conditions: 1% NCT, 125 IE/mL heparin, pH 7.1, 37° C., 30-120 min
Experimental: FIG. 9 presents a plot of fungicidal activity of 1% NCT without and with 125 IE/mL heparin against Candida albicans (CBS 5982) at pH 7.1 and 37° C. Mean values±standard error of the mean of three independent experiments. P>0.05 between NCT without and NCT with heparin.
NCT was dissolved in 0.1 M phosphate buffer containing either 125 IE/mL heparin or no heparin. The final NCT concentration was 1%. Yeast (Candida albicans, CBS 5982) grown in tryptic soy broth overnight was washed twice in saline and then suspended in the NCT and NCT/heparin solutions. Controls were performed with the yeast suspended in 0.1 M phosphate buffer without additives and in 0.1 M phosphate buffer containing 125 IE/mL heparin. After incubation times of 30, 60, 90 and 120 minutes at 37° C. and pH 7.1, aliquots of 100 μL were removed and diluted tenfold or 100-fold in 0.6% sodium thiosulfate solution to inactivate the NCT. Aliquots (50 μL) of these dilutions were spread on tryptic soy agar plates. The plates were incubated at 37° C. and colony forming units of Candida albicans were counted after 24 and 48 hours. The assays were performed three times serially and the mean count was reported (FIG. 9). […] Statistical analysis was performed by Student's paired t test and one way analysis of variance (P>0.05 between NCT without and NCT with heparin). […]

[2] = system: Staphylococcus aureus, ATCC 25923; assay: Bactericidal activity of NCT with heparin in human whole blood; assay type: cell-based; conditions: 37° C.
Experimental: FIG. 10 presents a plot of bactericidal activity of 1% NCT with 125 IE/mL heparin in human blood against Staphylococcus aureus (ATCC 25923) at […] and 37° C. Mean values±standard error of the mean of three independent experiments. P<0.01 between NCT and control samples.
Bacteria (Staphylococcus aureus, ATCC 25923 and Escherichia coli, ATCC 11229) grown in tryptic soy broth overnight were washed twice in saline and suspended in human whole blood containing 125 IE/mL heparin. Different volumes of a saline solution of NCT sodium salt were added to the suspension so that the test samples contained 10%, 25%, 50%, and 75% blood. In addition, 100% blood plus 125 IE/mL heparin was tested at which NCT was directly dissolved in blood. The final NCT concentration after mixing blood and NCT solutions was 1% in all samples. Controls contained 100% blood plus 125 IE/mL heparin and 10%, 25%, 50% and 75% blood, respectively, in saline, plus 125 IE/mL heparin without NCT. All of the solutions were incubated at 37° C. and pH 7.36-7.44 (the pH of blood). After 1, 3, 5, 10, 15, 30, 45 and 60 minutes, aliquots of 100 μL were removed and diluted tenfold or 100-fold in 0.6% sodium thiosulfate solution to inactivate the NCT. Aliquots (50 μL) of these dilutions were spread on tryptic soy agar plates. The plates were incubated at 37° C. and colony forming units of bacteria were counted after 24 and 48 hours. […]

[3] = system: purulent coated crural ulcers; conditions: purulent coated crural ulcers [Ref. 17]; cited from earlier work
citrate blood = assay: Thrombin time (TT), BC Thrombin Reagent test; assay type: biochemical, human; conditions: for TT / TT (sec): Example 6, single volunteer; for Thrombin time (TT) / Thrombin time (TT), mean value: Example 7; for Thrombin time (TT): individual subjects; for Thrombin time (TT), mean value: mean of 11 subjects
Experimental: Whole blood was taken from volunteers and enriched with trisodium citrate (0.3 mL of a 0.106 molar solution per 3 mL whole blood) (S-Monovette®, Sarstedt, Nümbrecht, Germany). Routine coagulation tests were performed on the following samples:
The following commercial coagulation tests were performed according to the prescription of the manufacturer: prothrombin time (PT) was determined using Thromborel® S test (Dade Behring GmbH, Marburg, Germany); activated partial thromboplastin time (aPTT) was determined using Pathromtin* SL test (Dade Behring GmbH, Marburg, Germany); and thrombin time (TT) was determined using BC Thrombin Reagent test (Dade Behring GmbH, Marburg, Germany).
Whole blood was taken from a single volunteer and enriched with trisodium citrate (0.3 mL of a 0.106 molar solution per 3 mL whole blood) (S-Monovette®, Sarstedt, Nümbrecht, Germany). Portions of 1.8 mL citrate blood were mixed with 0.2 mL NCT in 0.9% saline. The following final (after dilution in blood) NCT concentrations were tested separately: 1% (55 mM); 0.5% (27.5 mM); 0.25% (13.75 mM); 0.1% (5.5 mM); 0.05% (2.75 mM); 0.025% (1.375 mM); and 0.01% (0.55 mM). A control without NCT was performed in parallel. The following commercial coagulation tests were performed according to the prescription of the manufacturer: prothrombin time (PT) was determined using Thromborel® S test (Dade Behring GmbH, Marburg, Germany), activated partial thromboplastin time (aPTT) was determined using Pathromtin* SL test (Dade Behring GmbH, Marburg, Germany); thrombin time (TT) was determined using BC Thrombin Reagent test (Dade Behring GmbH, Marburg, Germany); and fibrinogen was determined using Multifibren* U test (Dade Behring GmbH, Marburg, Germany).
as §1

chronic rhinosinusitis = conditions: pilot study in chronic rhinosinusitis [Ref. 16]; cited from earlier work

SMILES: O=S(=O)(O)CCNCl [NCT, N-chlorotaurine]
- effect on septic arthritis (Staphylococcus aureus): inhibited septic arthritis
- D-Dimer (D-Dimer; 0.01% NCT): 209 µg/L and 195 µg/L and 340 µg/L and 143 µg/L and 50 µg/L and 174 µg/L and 241 µg/L and 155 µg/L and 132 µg/L and 191 µg/L and 149 µg/L
- D-Dimer, mean value (D-Dimer; 0.01% NCT): 179.9 µg/L
- D-Dimer (D-Dimer; 0.025% NCT): 200 µg/L and 179 µg/L and 316 µg/L and 122 µg/L and 50 µg/L and 153 µg/L and 227 µg/L and 143 µg/L and 126 µg/L and 172 µg/L and 132 µg/L
- D-Dimer, mean value (D-Dimer; 0.025% NCT): 165.5 µg/L
- killing activity of NCT without vs with heparin [1]: no statistically significant difference in the killing activity
- bactericidal activity in blood ([2]; 1% NCT dissolved in 100% blood plus 125 IE/mL heparin): no significant bactericidal activity was detected
- bactericidal activity in blood ([2]; 1% NCT in 10%, 25%, 50% and 75% blood plus 125 IE/mL heparin): demonstrated bactericidal activity
- pain and toxicity versus chloramine T [3]: significantly less pain and was less toxic than chloramine T
- thrombin time (citrate blood; Example 5, 1% NCT final concentration in citrate blood): above the test limits
- TT (citrate blood; 0.01% (0.55 mM) NCT final): 19.5 s
- TT (citrate blood; 0.025% (1.375 mM) NCT final): 26.6 s
- TT (citrate blood; 0.05% (2.75 mM) NCT final): 48.8 s
- TT (citrate blood; 0.1% (5.5 mM) NCT final): 92.2 s
- TT (citrate blood; 0.25% (13.75 mM) NCT final): 101.8 s
- TT (sec) (citrate blood; 0.5% (27.5 mM) NCT final): >limit
- TT (sec) (citrate blood; 1% (55 mM) NCT final): >limit
- Thrombin time (TT) (citrate blood; 0.01% NCT): 22 sec (5×) and 24 sec (2×) and 32 sec and 23 sec (3×)
- Thrombin time (TT), mean value (citrate blood; 0.01% NCT): 23.5 s
- Thrombin time (TT) (citrate blood; 0.025% NCT): 44 sec (2×) and 39 sec and 59 sec and 43 sec and 52 sec and 55 sec and 48 sec and 40 sec and 45 sec and 35 sec
- Thrombin time (TT), mean value (citrate blood; 0.025% NCT): 45.8 s
- tolerability (chronic rhinosinusitis): good tolerability
